Values of other authors as cited in patent publication US20060094003A1, “Acetylcholine-dependent current as a novel ionic target for atrial fibrillation” (priority 2004, published 2006).

Target: T1, Kir 3.1/3.4 currents (Homo sapiens, UniProt P48544+P48549)
T1 sequence (P48549 1-501): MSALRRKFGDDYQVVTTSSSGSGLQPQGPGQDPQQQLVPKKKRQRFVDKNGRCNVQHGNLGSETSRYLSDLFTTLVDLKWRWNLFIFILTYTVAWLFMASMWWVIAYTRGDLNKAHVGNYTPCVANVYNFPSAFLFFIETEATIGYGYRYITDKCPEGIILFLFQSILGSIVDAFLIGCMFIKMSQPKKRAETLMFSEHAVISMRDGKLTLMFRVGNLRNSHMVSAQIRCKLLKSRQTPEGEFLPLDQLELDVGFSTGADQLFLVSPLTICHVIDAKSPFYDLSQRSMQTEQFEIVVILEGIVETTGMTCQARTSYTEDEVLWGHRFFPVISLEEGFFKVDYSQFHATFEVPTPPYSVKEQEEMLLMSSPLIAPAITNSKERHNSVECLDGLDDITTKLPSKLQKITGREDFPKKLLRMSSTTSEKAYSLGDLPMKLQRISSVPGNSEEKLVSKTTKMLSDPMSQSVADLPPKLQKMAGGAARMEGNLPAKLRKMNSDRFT
T1 sequence (P48544 1-419): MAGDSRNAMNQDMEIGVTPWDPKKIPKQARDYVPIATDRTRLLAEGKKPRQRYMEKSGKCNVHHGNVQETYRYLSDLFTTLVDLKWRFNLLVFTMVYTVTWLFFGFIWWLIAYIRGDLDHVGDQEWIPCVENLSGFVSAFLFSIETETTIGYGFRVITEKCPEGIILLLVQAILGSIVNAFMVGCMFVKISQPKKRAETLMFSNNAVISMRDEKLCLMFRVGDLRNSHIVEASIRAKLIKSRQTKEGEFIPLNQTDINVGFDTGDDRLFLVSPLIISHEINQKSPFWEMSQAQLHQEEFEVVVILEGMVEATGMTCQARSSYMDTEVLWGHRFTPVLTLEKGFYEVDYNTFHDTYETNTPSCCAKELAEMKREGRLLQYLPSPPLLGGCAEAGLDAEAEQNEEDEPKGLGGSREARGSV
Details: Jin & Lu, 1999; cited from earlier work

Question: For tertiapin-Q, which IC50 is on record?
Answer: 8 nM
